Measured values published in patent publication US7138408B2, “HIV integrase inhibitors, pharmaceutical compositions and methods for their use” (priority 2003, dated 2006).

These compounds were tested against T1, HIV-1 integrase (SF1) (Human immunodeficiency virus type 1 group M subtype B, UniProt P04585, C1203S/C1427S/F1286D/F1332K/W1278D) (assay: Integrase strand-transfer scintillation proximity assay).
T1 construct: 6-histidine tag with thrombin cleavage site (N, cleaved yes); made in house; host or cells: E. coli BL21 (DE3)
Format: biochemical
Excerpt: Oligonucleotides: Oligonucleotide #1-5′-(biotin)[…]-3′ (SEQ ID NO: 1) and oligonucleotide #2-5′-[…]-3′ (SEQ ID NO: 2), were synthesized by TriLink BioTechnologies, Inc. (San Diego, Calif.). The annealed product represents preprocessed viral ds-DNA derived from the LTR U5 sequence of the viral genome. A ds-DNA control to test for non-specific interactions was made using a 3′ di-deoxy derivative of oligonucleotide #1 annealed to oligonucleotide #2. The CA overhang at the 5′ end of the non-biotinylated strand of the ds-DNA was created artificially by using a complimentary DNA oligonucleotide shortened by 2 base pairs. This configuration eliminates the requisite 3′ processing step of the integrase enzyme prior to the strand-transfer mechanism.
Host ds-DNA was prepared as an unlabeled and [^3H]-thymidine labeled product from annealed oligonucleotide #3-5-[…]-3′ (SEQ ID NO: 3), and oligonucleotide #4-5′-[…]-3′ (SEQ ID NO: 4), both synthesized by TriLink BioTechnologies, Inc. (San Diego, Calif.). The annealed product had overhanging 3′ ends of poly(dA). Host DNA was custom radiolabeled by PerkinElmer Life Sciences Inc. (Boston, Mass.) using an enzymatic method with a 12/1 ratio of [methyl-^3H]dTTP/cold ds-DNA to yield 5′-blunt end ds-DNA with a specific activity of>900 Ci/mmol. The radiolabeled product was purified using a NENSORB cartridge and stored in stabilized aqueous solution (PerkinElmer). The final radiolabeled product had six [^3H]-thymidine nucleotides at both 5′ ends of the host ds-DNA.
Reagents: Streptavidin-coated polyvinyltoluene (PVT) SPA beads were purchased from Amersham Pharmacia (Piscataway, N.J.). Cesium chloride was purchased from Shelton Scientific, Inc. (Shelton, Conn.). White polystyrene, flat bottom, non-binding surface 384-well plates were purchased from Corning. All other buffer components were purchased from Sigma (St. Louis, Mo.) unless otherwise indicated.
Enzyme Construction: Full-length HIV-1 integrase (SF1) sequence (amino acids 1–288) (SEQ ID NO: 5) was constructed in a pET 15b vector (Novagen, Madison, Wis.) with mutations outlined by Chen et al. (Chen, C-H. J. et al., PNAS 97: 8233–8238 (2000)) that facilitate solubility of the enzyme and decrease oxidation. The vector contained a T7 promoter, a 6-histidine tag at the amino terminus, and a thrombin cleavage site. Mutations C56S, W131D, F139D, F185K, and C280S were introduced using a QuickChange kit (Stratagene, San Diego, Calif.). The construct was confirmed through DNA sequencing.
Enzyme Purification: The penta-mutant was expressed in E. coli BL21 (DE3) cells and induced with 1 mM isopropyl-1 thio-β-D-galactopyranoside (IPTG) when cells reached an optical density between 0.8–1.0 at 600 nm. Cells were lysed in 20 mM HEPES (pH 7.5), 1.5 M NaCl, 5 mM imidazole, and 2 mM 2-mercaptoethanol. The enzyme was purified following standard methods for histidine tagged proteins (Jenkins, T. M. et al., Journal of Biological Chemistry 271: 7712–7718 (1996)). Specifically, cell lysate was passed over a Ni-Nta column (Qiagen, Chatsworth, Calif.) with the 6-His tagged integrase protein eluted by adding 250 mM imidazole. A G-25 Sepharose® column (Amersham Pharmacia, Piscataway, N.J.) was used to exchange the buffer prior to thrombin cleavage of the integrase protein and subsequent removal of thrombin using a benzamidine-Sepharose® 6B column. The cleaved 6-His tag was separated from the integrase using a second Ni-Nta column. The integrase was further purified with a heparin-Sepharose® column and a gradient of NaCl (0.4 to 1 M) in 20 mM HEPES (pH 7.5), 400 mM NaCl, and 1 mM DTT buffer. The purified protein was dialyzed against 20 mM HEPES (pH 7.5), 800 mM NaCl, and 1 mM DTT and concentrated by stirred cell ultrafiltration (Millipore, Bedford, Mass.) or Ultra-free spin concentrators (Millipore, Bedford, Mass.) when required. […]

Row | Structure (SMILES) | IC50
1 | O=C(NO)c1cc2c3ccccc3n(Cc3ccc(F)cc3)c2cn1 [Compound 1, 9-(4-Fluorobenzyl)-N-hydroxy-9H-β-carboline-3-carboxamide] | 234 nM
2 | O=C(NO)c1cc2c3ccccc3n(Cc3ccc(Cl)s3)c2cn1 [Compound 2, 9-[(5-Chlorothien-2-yl)methyl]-N-hydroxy-9H-β-carboline-3-carboxamide] | 494 nM
3 | O=C(NO)c1cc2c3ccccc3n(Cc3cccc(Cl)c3F)c2cn1 [Compound 3, 9-(3-Chloro-2-fluorobenzyl)-N-hydroxy-9H-β-carboline-3-carboxamide] | 400 nM
4 | O=C(NO)c1cc2c3ccccc3n(Cc3ccccc3)c2cn1 [Compound 4, 9-Benzyl-N-hydroxy-9H-β-carboline-3-carboxamide] | 281 nM
5 | O=C(NO)c1cc2c3ccccc3n(Cc3ccc(F)cc3F)c2cn1 [Compound 6, 9-(2,4-Difluorobenzyl)-N-hydroxy-9H-β-carboline-3-carboxamide] | 463 nM
6 | O=C(NO)c1cc2c3ccccc3n(Cc3c(F)ccc(Cl)c3F)c2cn1 [Compound 7, 9-(3-Chloro-2,6-difluorobenzyl)-N-hydroxy-9H-β-carboline-3-carboxamide] | 1390 nM
7 | Nc1ccc2c(c1)c1cc(C(=O)NO)ncc1n2Cc1cccc(Cl)c1 [Compound 8, 6-Amino-9-(3-chlorobenzyl)-N-hydroxy-9H-β-carboline-3-carboxamide] | 713 nM
8 | CN(O)C(=O)c1cc2c3ccccc3n(Cc3ccc(F)cc3)c2cn1 [Compound 13, 9-(4-Fluorobenzyl)-N-hydroxy-N-methyl-9H-β-carboline-3-carboxamide] | 699 nM
